Source: PMC6539903 (Molecules, 2019)

Assays:
[1] = test system: HepG2; test: MTT antiproliferation assay, HepG2; assay type: cell-based; conditions: Homo sapiens, 48 h, n = 3, read-out: IC50 ± SD HepG2
Protocol: (§1) MCF-7 (human breast cell line), HeLa (human cervical cell line), A549 (human lung cell line), HepG2 (human liver cell line), SW620 (human colorectal cell line) and a non-cancer cell line, NCM460 (Human colonic epithelial cells) were preserved at the State Key Laboratory of Pharmaceutical Biotechnology, Nanjing University (Nanjing, China).
(§2) The antiproliferative activity of the synthetic compounds against the SW620, MCF-7, HeLa, A549, HepG2, and NUM460 cell lines was evaluated by a colorimetric assay based on a modified standard (MTT). […] Thereafter, MTT (5 mg/mL in PBS) was added to each well and incubated for 4 h. 150 μL of DMSO was added to each well and shaken with a shaker. The absorbance (OD 570 nm) was read at 630 nm on an ELISA reader (ELx800, BioTek, montpelier, VT, USA). IC50 values for the compounds were calculated by comparison to DMSO treated control wells. Three replicate wells were used for each drug concentration. Each assay was performed three times.

[2] = target: T1, COX-1 (Homo sapiens, UniProt P23219); test: COX-1 inhibition assay (COX-1 ELISA kit); assay type: biochemical; conditions: mean of four determinations; read-out: IC50 ± SD COX-1
T1 construct: purchased Cayman Chemical 701170
T1 sequence (P23219 24-599): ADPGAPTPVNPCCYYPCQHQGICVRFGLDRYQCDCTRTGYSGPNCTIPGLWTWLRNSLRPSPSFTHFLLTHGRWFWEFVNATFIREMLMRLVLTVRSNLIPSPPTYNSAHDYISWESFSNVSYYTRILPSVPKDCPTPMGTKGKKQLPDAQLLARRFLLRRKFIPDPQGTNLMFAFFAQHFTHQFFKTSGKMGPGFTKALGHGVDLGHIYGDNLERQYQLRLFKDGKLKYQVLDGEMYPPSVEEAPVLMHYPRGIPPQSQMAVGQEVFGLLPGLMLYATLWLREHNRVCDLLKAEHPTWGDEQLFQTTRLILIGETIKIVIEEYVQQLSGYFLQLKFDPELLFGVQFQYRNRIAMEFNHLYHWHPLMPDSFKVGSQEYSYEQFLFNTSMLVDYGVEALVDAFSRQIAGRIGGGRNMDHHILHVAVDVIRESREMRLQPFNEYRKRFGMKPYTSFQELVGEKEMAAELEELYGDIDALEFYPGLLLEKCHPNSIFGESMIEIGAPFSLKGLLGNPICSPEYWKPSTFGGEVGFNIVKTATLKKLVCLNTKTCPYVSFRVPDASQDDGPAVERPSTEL
Protocol: (§3) 3-(4,5-Dimethylthiazol-2-yl)-2,5-diphenyltetrazolium (MTT) were purchased from Beyotime Institute of Biotechnology (Haimen, China). Annexcin V-FITC cell apoptosis assay kit (catalog No.BA11100) was purchased from BIO-BOX (Nanjing, China). Fibronectin (#F1056) and laminin (#L2020) were purchased from Sigma-Aldrich (St. Louis, MO, USA).
(§4) Then 1 M HCl was added to the reaction mixture to stop the reaction, and one-tenth of the volume of saturated stannous chloride (50 mg/mL) was added. The reaction mixture was incubated at room temperature for 5 min, and PGF2 and PGH2 were produced.

[3] = target: T2, COX-2 (Homo sapiens, UniProt P35354); test: COX-2 inhibition assay (COX-2 ELISA kit); assay type: biochemical; conditions: for Selectivity Index (SI) (COX-1 IC50/COX-2 IC50): in vitro COX-2 selectivity index; for IC50: mean of four determinations, read-out: IC50 ± SD COX-2
T2 construct: purchased Cayman Chemical 701180
T2 sequence (P35354 18-604): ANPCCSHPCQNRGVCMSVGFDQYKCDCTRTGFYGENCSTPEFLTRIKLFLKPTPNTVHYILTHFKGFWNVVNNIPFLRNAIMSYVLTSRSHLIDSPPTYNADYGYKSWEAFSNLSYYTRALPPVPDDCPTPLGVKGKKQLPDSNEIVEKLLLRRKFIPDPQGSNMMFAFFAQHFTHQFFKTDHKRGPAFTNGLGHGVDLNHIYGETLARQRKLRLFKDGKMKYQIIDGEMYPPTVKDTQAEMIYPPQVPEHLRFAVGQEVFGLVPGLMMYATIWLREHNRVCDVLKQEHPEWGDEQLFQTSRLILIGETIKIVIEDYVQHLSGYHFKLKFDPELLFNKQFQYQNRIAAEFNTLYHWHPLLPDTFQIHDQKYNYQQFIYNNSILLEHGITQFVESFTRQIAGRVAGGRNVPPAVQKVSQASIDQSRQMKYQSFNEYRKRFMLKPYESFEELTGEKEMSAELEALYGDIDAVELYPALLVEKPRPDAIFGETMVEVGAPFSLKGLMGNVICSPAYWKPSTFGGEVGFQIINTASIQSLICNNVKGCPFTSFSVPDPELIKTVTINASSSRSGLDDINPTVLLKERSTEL
Protocol: as §3, §4

[4] = test system: HeLa; test: MTT antiproliferation assay, HeLa; assay type: cell-based; conditions: Homo sapiens, 48 h, n = 3, read-out: IC50 ± SD HeLa
Protocol: as §1, §2

[5] = MTT cytotoxicity assay, non-cancer colon cells; assay type: cell-based; conditions: human, NCM460 colonic epithelial cells (non-cancer cell line), n = 3, non-cancer cell line, read-out: CC50 ± SD NUM460
Protocol: Besides, the MTT assay was performed on a non-cancer line NCM460 to assess the cytotoxicity of the test compound to normal colon cells.
as §1, §2

[6] = test system: MCF-7; test: MTT antiproliferation assay, MCF-7; assay type: cell-based; conditions: Homo sapiens, MCF7, 48 h, n = 3, read-out: IC50 ± SD MCF-7
Protocol: as §1, §2

[7] = test system: A549; test: MTT antiproliferation assay, A549; assay type: cell-based; conditions: Homo sapiens, 48 h, n = 3, read-out: IC50 ± SD A549
Protocol: as §1, §2

[8] = test system: SW620 cells; test: MTT antiproliferation assay, SW620; assay type: cell-based; conditions: Homo sapiens, SW-620, 48 h, n = 3, read-out: IC50 ± SD SW620
Protocol: as §1, §2

SMILES | IC50 [1] [µM] | melting point [°C] | IC50 [2] [µM] | Selectivity Index (SI) (COX-1 IC50/COX-2 IC50) [3] | IC50 [4] [µM] | CC50 at 48 h [5] [µM] | IC50 [6] [µM] | IC50 [7] [µM] | IC50 [8] [µM] | IC50 [3] [µM]
Cc1ccc(C2=NN(c3ccc(S(N)(=O)=O)cc3)C(c3ccc4c(c3)OCCO4)C2)cc1 (centres unmarked) [Compound 4l, 4-(5-(2,3-Dihydrobenzo[b][1,4]dioxin-6-yl)-3-(p-tolyl)-4,5-dihydro-1H-pyrazol-1-yl)benzenesulfonamide] | 5.92 ± 0.39 | 153 to 154 | 43.87 ± 0.37 | 46.67 | 4.46 ± 0.36 | 68.7 ± 5.28 | 4.22 ± 0.16 | 2.58 ± 0.18 | 2.35 ± 0.11 | 
COc1ccc(C2=NN(c3ccc(S(N)(=O)=O)cc3)C(c3ccc4c(c3)OCCO4)C2)cc1 (centres unmarked) [Compound 4m, 4-(5-(2,3-Dihydrobenzo[b][1,4]dioxin-6-yl)-3-(4-methoxyphenyl)-4,5-dihydro-1H-pyrazol-1-yl)benzenesulfonamide] | 9.44 ± 0.77 | 207 to 208 | > 60 | >39.47 | 7.22 ± 0.19 | 110 ± 7.42 | 6.52 ± 0.33 | 4.54 ± 0.29 | 3.88 ± 0.37 | 1.52 ± 0.09
CCOc1ccc(C2=NN(c3ccc(S(N)(=O)=O)cc3)C(c3ccc4c(c3)OCCO4)C2)cc1 (centres unmarked) [Compound 4n, 4-(5-(2,3-Dihydrobenzo[b][1,4]dioxin-6-yl)-3-(4-ethoxyphenyl)-4,5-dihydro-1H-pyrazol-1-yl)benzenesulfonamide] | 13.5 ± 0.59 | 193 to 194 | > 60 | >24.59 | 11.2 ± 0.86 | 157 ± 9.98 | 9.88 ± 0.86 | 6.81 ± 0.55 | 6.12 ± 0.49 | 2.44 ± 0.19
NS(=O)(=O)c1ccc(N2N=C(c3ccc(F)cc3)CC2c2ccc3c(c2)OCCO3)cc1 (centres unmarked) [Compound 4o, 4-(5-(2,3-Dihydrobenzo[b][1,4]dioxin-6-yl)-3-(4-fluorophenyl)-4,5-dihydro-1H-pyrazol-1-yl)benzenesulfonamide] | 9.24 ± 0.74 | 195 to 196 | 38.41 ± 0.34 | 25.10 | 7.12 ± 0.69 | 107 ± 9.21 | 6.44 ± 0.37 | 4.43 ± 0.33 | 3.83 ± 0.27 | 1.53 ± 0.12
NS(=O)(=O)c1ccc(N2N=C(c3ccc(Cl)cc3)CC2c2ccc3c(c2)OCCO3)cc1 (centres unmarked) [Compound 4p, 4-(3-(4-Chlorophenyl)-5-(2,3-dihydrobenzo[b][1,4]dioxin-6-yl)-4,5-dihydro-1H-pyrazol-1-yl)benzenesulfonamide] | 8.16 ± 0.63 | 146 to 148 | 37.32 ± 0.18 | 26.46 | 6.58 ± 0.49 | 94.7 ± 3.65 | 5.99 ± 0.38 | 3.83 ± 0.26 | 3.53 ± 0.16 | 1.41 ± 0.07
NS(=O)(=O)c1ccc(N2N=C(c3ccc(Br)cc3)CC2c2ccc3c(c2)OCCO3)cc1 (centres unmarked) [Compound 4q, 4-(3-(4-Bromophenyl)-5-(2,3-dihydrobenzo[b][1,4]dioxin-6-yl)-4,5-dihydro-1H-pyrazol-1-yl)benzenesulfonamide] | 6.92 ± 0.28 | 153 to 154 | 26.64 ± 0.26 | 20.98 | 5.96 ± 0.39 | 80.3 ± 8.01 | 5.47 ± 0.29 | 3.14 ± 0.25 | 3.18 ± 0.19 | 1.27 ± 0.03
NS(=O)(=O)c1ccc(N2N=C(c3ccc(I)cc3)CC2c2ccc3c(c2)OCCO3)cc1 (centres unmarked) [Compound 4r, 4-(5-(2,3-Dihydrobenzo[b][1,4]dioxin-6-yl)-3-(4-iodophenyl)-4,5-dihydro-1H-pyrazol-1-yl)benzenesulfonamide] | 3.28 ± 0.17 | 187 to 189 | 41.18 ± 0.17 | 47.33 | 4.14 ± 0.21 | 38 ± 1.19 | 3.95 ± 0.18 | 3.12 ± 0.08 | 2.17 ± 0.05 | 
Cc1ccc(C2=NN(c3ccc(S(N)(=O)=O)cc3)C(c3ccc4c(c3)OCCO4)C2)cc1C (centres unmarked) [Compound 4s, 4-(5-(2,3-Dihydrobenzo[b][1,4]dioxin-6-yl)-3-(3,4-dimethylphenyl)-4,5-dihydro-1H-pyrazol-1-yl)benzenesulfonamide] | 11.8 ± 0.59 | 166 to 168 | > 60 | >33.33 | 8.41 ± 0.17 | 137 ± 3.98 | 7.51 ± 0.47 | 5.86 ± 0.47 | 4.54 ± 0.31 | 1.8 ± 0.05
Cc1cc(C2=NN(c3ccc(S(N)(=O)=O)cc3)C(c3ccc4c(c3)OCCO4)C2)ccc1F (centres unmarked) [Compound 4t, 4-(5-(2,3-Dihydrobenzo[b][1,4]dioxin-6-yl)-3-(4-fluoro-3-methylphenyl)-4,5-dihydro-1H-pyrazol-1-yl)benzenesulfonamide] | 8.94 ± 0.67 | 159 to 161 | > 60 | >40.54 | 6.97 ± 0.51 | 104 ± 4.74 | 6.31 ± 0.39 | 4.26 ± 0.19 | 3.74 ± 0.12 | 1.48 ± 0.02
COc1cccc(C2=NN(c3ccc(S(N)(=O)=O)cc3)C(c3ccc4c(c3)OCCO4)C2)c1 (centres unmarked) [Compound 4u, 4-(5-(2,3-Dihydrobenzo[b][1,4]dioxin-6-yl)-3-(3-methoxyphenyl)-4,5-dihydro-1H-pyrazol-1-yl)benzenesulfonamide] | 15.3 ± 1.09 | 146 to 147 | > 60 | >22.73 | 12.2 ± 0.85 | 178 ± 10.7 | 10.6 ± 0.67 | 7.81 ± 0.37 | 6.63 ± 0.42 | 2.64 ± 0.17
